From paper PMC4279419, “Angiostatic, tumor inflammatory and anti-tumor effects of CXCL4^47–70 and CXCL4L1^47–70 in an EGF-dependent breast cancer model” (Oncotarget, 2014)
Where no end group is shown, it is not given here. The star is where a group is joined. Biotin = O=C1N[C@H]2[C@H](CS[C@H]2CCCCC(=O)*)N1

Columns and labels:
CXCR3A = test: Calcium signaling in CXCR3A-transfectants; assay type: cell-based; conditions: CXCL10 5 ng/ml after prestimulation with buffer; CHO/CXCR3A; fura 2
Source text: We further tried to reveal the mode of action of CXCL4^47–70 and CXCL4L1^47–70. First, we excluded that either peptide still binds/activates one of the CXCR3 isoforms, the receptors for intact CXCL4 and CXCL4L1. […]
inhibit signaling by intact CXCL10. To study interaction of CXCL447–70 and CXCL4L147–70 with CXCR3A, CHO cells stably transfected with CXCR3A were loaded with the fluorescent dye fura 2 (Struyf et al. J. Immunol. 2009, 182:666). Changes in the intracellular Ca2+ concentrations ([Ca2+]i) in response to CXCL447–70 or CXCL4L147–70 treatment were monitored using a spectrofluorometer. The line in the spectra indicates the fluorescence intensity ratio (i.e. the fluorescence intensity measured after excitation at 340 nm divided by the fluorescence intensity measured after excitation at 380 nm). The results shown (one representative experiment out of three) illustrate a desensitization experiment, in which CHO/CXCR3A cells were stimulated first with a peptide (2 µg/ml) and 100 s later with intact CXCL10 […]
peptides induced a rise in [Ca2+]i. When the cells were stimulated with 5 ng/ml intact CXCL10 100 s after peptide treatment, the response […]
interact with CXCR3A. Arrows indicate the time of addition of the stimulus.
(also on this page, place not known: www.impactjournals.com/oncotarget/ Oncotarget, Supplementary Materials 2014 CXCL4 47–70 CXCL4L1 47–70 CXCL4 47–70 CXCL4L1 47–70 CXCL4 47–70) […]

[1] = test system: human dermal lymphatic microvascular endothelial cells (HLEC); test: HLEC MTT proliferation assay; assay type: cell-based; conditions: data not shown
Method: (§1) First, HMVEC and HLEC were seeded at 5 × 10^3 cells/well in EBM-2 + 1% FCS in a 96-well plate, whereas MDA-MB-231 were starved of growth factors overnight by replacing their growth medium with DMEM (serum-free) prior to seeding the tumor cells at 15 × 10^2 cells/well in DMEM + 1% FCS. As for the rest of the assay, the same protocol applies to all cells. Once adherent, cells were incubated with different concentrations of the peptides CXCL4^47–70 and CXCL4L1^47–70 as single stimuli or in combination with recombinant human EGF (3 ng/ml; R&D Systems, Minneapolis, MN) at 37°C/5% CO2. All conditions were tested in triplicate or quadruplicate. After 3 to 4 days, stimulation medium was removed and a sterile MTT solution was added [0.04 g/100 ml thiazolyl blue (Sigma-Aldrich, St. Louis, MO) in 20% PBS/80% RPMI without phenol red (Lonza)] for 3 to 4 hours. The formed formasan crystals were dissolved by replacing the MTT solution with acidic propanol (0.04 M HCl, 0.1% (v/v) Nondet P-40 in absolute isopropanol) and shaking the plate, shielded from light, for 10 minutes. Optical density (OD) was determined at 570 nm and 630 nm. The obtained ODs were processed to proliferation indexes (PI), expressed relative to appropriate buffer controls, i.e. ΔOD570–630X over ΔOD570–630CO.

p21 in HMVEC = test: Intracellular p21 content in HMVEC (ELISA); assay type: cell-based, human; conditions: EGF 20 ng/ml; 15 h; p21:total protein; mean ± s.e.m., n=9; p<0.001 versus control
Method: Signaling assays were slightly adapted to the signaling molecules of interest in this study. HMVEC were stimulated with EGF (20 ng/ml) as a single stimulus or in combination with the peptides CXCL4^47–70 and CXCL4L1^47–70 (0.3 to 10 μg/ml) in order to evaluate their impact on the cell cycle-arresting p21. After 15 hours, the cells were washed three times with ice-cold PBS to stop the stimulation and lysis buffer [1 mM EDTA, 0.5% (v/v) Triton-X, 10 mM NaF, 150 mM NaCl, 1 mM DTT in PBS; pH 7.2–7.4] supplemented with a protease inhibitor cocktail (Sigma) was added. Cell residue was removed from the collected lysates by centrifugation (4°C, 10 min, 1666g). Lastly, the intracellular p21 content was determined by DuoSet® IC ELISA (cat n° DYC1047, R&D Systems) while, in parallel, total protein content was measured in a bicinchoninic acid (BCA) protein assay (Pierce, Rockford, IL).

[2] = test system: human retinal microvascular endothelial cells (HMVEC); test: HMVEC MTT proliferation assay; assay type: cell-based; conditions: EGF 3 ng/ml; control medium PI=1; 3 to 4 days; MTT OD570–630; mean ± s.e.m., n=7
Method: as §1

p21 = conditions: EGF-stimulated endothelial cells; cited from earlier work
Source text: Previously, the EGF-induced reduction of the cyclin-dependent kinase inhibitor p21 was described. […] Therefore, we studied the effects of chemokine-derived peptides on p21 levels and, with it, their ability to arrest the cell cycle. Evaluation of the p21 content in HMVEC did confirm CXCL4^47–70 and CXCL4L1^47–70 to counteract the tendency of EGF to reduce p21 (Figure 2). […] Ad ...

monocyte = conditions: through heteromultimerization with CCL5; cited from earlier work
Source text: Concerning direct cytokine ligand interactions, both positive and negative interactions have been described for intact CXCL4 [33, 34, 37, 38] and its carboxy-terminal peptide. […] In this study we chose two cytokines important in our breast cancer model and verified interaction with CXCL4^47–70 and CXCL4L1^47–70: EGF as g ...

recombinant human CCL5 = target: T1, recombinant human CCL5 (human, UniProt P13501 24-91); test: ELISA; 50 ng/ml CCL5 in PBS coated overnight at room temperature on high protein-binding ELISA plates, blocked with 0.1% casein; dilution curve of biotinylated peptide at 37 °C; detected with peroxidase-conjugated streptavidin, OD450; conditions: both partners purified
T1 construct: CCL5, human, recombinant protein; source: bought: PeproTech
T1 sequence (looked up): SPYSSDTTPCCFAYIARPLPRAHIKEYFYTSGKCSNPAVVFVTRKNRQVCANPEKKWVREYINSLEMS

endothelial cell = conditions: compared with CXCL4; cited from earlier work
Source text: Angiogenesis, the formation of an ever more branching network of blood vessels from a pre-existing vascular network, has been established as a requisite for successful tumor growth and cancer progression. Anti-angiogenic therapy thus offers a promising approach to tackle one of the leading causes of mortality worldwide. However, classic anti-angiogenic therapeutics have encountered important hurdles and interest in less obvious targets, including inflammatory mediators such as the chemokines, increases. These chemotactic cytokines play an important role in immunity as they ...

CXCL10: intact CXCL10, CXCR3 ligand [reference compound]
calcium response to CXCL10 (CXCR3A): significant increase in [Ca2+]i

EGF: recombinant human EGF (R&D Systems) [reference compound]
HLEC proliferation response to EGF [1]: not responsive to EGF-stimulation | intracellular p21 relative to control (100%), EGF alone (p21 in HMVEC): 75.82 ± 3.69% | Proliferation index (PI), EGF alone [2]: 1.42 ± 0.08

B1: CXCL4: natural human CXCL4 isolated from stimulated platelets; 70 amino acid-long mature protein (protein, UniProt P02776 32-101, looked up)
Platelet factor 4: EAEEDGDLQCLCVKTTSQVRPRHITSLEVIKAGPHCPTAQLIATLKNGRKICLDLQAPLYKKIIKKLLES
effect on EGF-induced p21 downregulation (p21): appeared to interfere with this p21 downregulation | effect on CCL5 monocyte chemotactic activity (monocyte): enhances monocyte chemotactic activity of CCL5

B2: NH2-terminally biotinylated CXCL4^47–70 peptide (peptide, UniProt P02776 78-101, looked up)
peptide: Biotin-NGRKICLDLQAPLYKKIIKKLLES
notes: CXCL4/Platelet factor-4 (PF-4), human, last 24 amino acids (residues 47-70) of the 70 amino acid-long mature protein; has Pro58, Lys66, Leu67; numbers count on: the mature protein; The functional assays (chemotaxis, calcium) used the peptide without mention of biotin; also called carboxy-terminal peptide of CXCL4/Platelet factor-4 (PF-4); source: synthetic peptide (Fmoc chemistry, purified by …)
binding result (recombinant human CCL5): binds

B3: CXCL4L1: recombinant human CXCL4L1 isolated from baculovirus-infected Sf9 cells (protein, UniProt P10720 31-104, looked up)
Platelet factor 4 variant: FARAEAEEDGDLQCLCVKTTSQVRPRHITSLEVIKAGPHCPTAQLIATLKNGRKICLDLQALLYKKIIKEHLES
inhibition of CXCL8- and FGF2-induced endothelial cell chemotaxis (endothelial cell): more efficiently than CXCL4
